Reference: patent publication US20240109900A1, “AZABICYCLIC SHP2 INHIBITORS” (IRBM S.P.A., priority 2021, published 2024)

How the values were obtained:
[1] = molecular target: SHP-2 enzyme (Met1-Leu525) (Homo sapiens (Human), UniProt Q06124); experiment: SHP2 inhibition enzymatic assay; assay type: biochemical; conditions: 0.5 nM SHP-2 activated by 500 nM IRS1 peptide, 75 μM DiFMUP substrate; read-out: SHP2wt-IC50
Method in brief: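 Compounds were preincubated 30 min with 0.5 nM SHP-2 (Met1-Leu525) plus 500 nM IRS1 activating peptide (pH 7.2 HEPES, 5 mM DTT), then 75 μM DiFMUP substrate reacted 30 min at room temperature. After bpV quench, DiFMUP fluorescence gave % inhibition; four-parameter logistic fit yielded IC50.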

[2] = test system: ERK phosphorylation in KYSE-520 cells; experiment: Phospho-ERK cellular assay; assay type: cell-based; conditions: Homo sapiens, KYSE-520, 2 h, KYSE-520 cells, 2 h at 37° C., phospho-ERK1/2 (Thr202/Tyr204) TR-FRET; read-out: PERK IC50
Method in brief: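 TR-FRET read-out of ERK1/2 Thr202/Tyr204 phosphorylation was taken after overnight antibody incubation at room temperature. Before that, KYSE-520 cells were treated 2 h at 37 °C with compound dilutions and lysed 30 min. Percent inhibition relative to vehicle and cell-free wells was fitted four-parametrically to give IC50.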

Sequence of SHP-2 enzyme (Met1-Leu525) (Q06124 1-525): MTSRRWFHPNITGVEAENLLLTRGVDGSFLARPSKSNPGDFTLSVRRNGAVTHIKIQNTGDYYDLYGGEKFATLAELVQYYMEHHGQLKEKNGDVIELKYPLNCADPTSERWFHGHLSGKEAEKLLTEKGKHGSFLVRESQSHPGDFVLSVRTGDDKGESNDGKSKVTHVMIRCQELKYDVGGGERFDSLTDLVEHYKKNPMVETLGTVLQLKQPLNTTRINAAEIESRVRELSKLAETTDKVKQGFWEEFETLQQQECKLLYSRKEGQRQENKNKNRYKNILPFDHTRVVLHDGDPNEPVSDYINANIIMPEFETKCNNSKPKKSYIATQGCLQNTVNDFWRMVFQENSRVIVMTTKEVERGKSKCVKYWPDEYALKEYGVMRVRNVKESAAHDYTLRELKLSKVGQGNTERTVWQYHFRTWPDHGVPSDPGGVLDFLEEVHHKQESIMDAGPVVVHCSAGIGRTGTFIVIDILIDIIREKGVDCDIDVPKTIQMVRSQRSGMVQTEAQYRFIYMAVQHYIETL

Row | SMILES | IC50 [1] [nM] | IC50 [2] [nM]
1 | Cc1cc([C@@]2(CN)[C@@H]3CCN(c4cnc5c(-c6ccc(C(C)O)c7ncccc67)n[nH]c5n4)C[C@@H]32)no1 (stereo partly drawn) [Example 134, 1-(5-(6-((1S,6R,7S)-7-(aminomethyl)-7-(5-methylisoxazol-3-yl)-3-azabicyclo[4.1.0]heptan-3-yl)-1H-pyrazolo[3,4-b]pyrazin-3-yl)quinolin-8-yl)ethan-1-ol] | < 500 | < 1000
2 | NC[C@]1(c2ccccc2F)[C@@H]2CCN(c3ncc(Sc4ccnc(N)c4Cl)n4cncc34)C[C@@H]21 [Example 135, 4-((8-((1S,6R,7R)-7-(aminomethyl)-7-(2-fluorophenyl)-3-azabicyclo[4.1.0]heptan-3-yl)imidazo[1,5-a]pyrazin-5-yl)thio)-3-chloropyridin-2-amine] | > 3000 | > 5000
3 | NC[C@]1(c2ccccc2F)[C@@H]2CCN(c3cnc4c(-c5ccn6nccc6c5)n[nH]c4n3)C[C@@H]21 [Example 136, ((1S,6R,7R)-7-(2-fluorophenyl)-3-(3-(pyrazolo[1,5-a]pyridin-5-yl)-1H-pyrazolo[3,4-b]pyrazin-6-yl)-3-azabicyclo[4.1.0]heptan-7-yl)methanamine] | < 500 | < 1000
4 | CC(C)(O)c1ccc(-c2n[nH]c3nc(N4CC[C@@H]5[C@H](C4)[C@@]5(CN)c4ccccc4F)cnc23)c2cccnc12 [Example 137, 2-(5-(6-((1S,6R,7R)-7-(aminomethyl)-7-(2-fluorophenyl)-3-azabicyclo[4.1.0]heptan-3-yl)-1H-pyrazolo[3,4-b]pyrazin-3-yl)quinolin-8-yl)propan-2-ol] | < 500 | < 1000
5 | CC(C)Oc1ccc(-c2n[nH]c3nc(N4CC[C@@H]5[C@H](C4)[C@@]5(CN)c4ccccc4F)cnc23)c2cccnc12 [Example 138, ((1S,6R,7R)-7-(2-fluorophenyl)-3-(3-(8-isopropoxyquinolin-5-yl)-1H-pyrazolo[3,4-b]pyrazin-6-yl)-3-azabicyclo[4.1.0]heptan-7-yl)methanamine] | < 500 | < 1000
6 | NC[C@]1(c2ccccc2F)[C@@H]2CCN(c3cnc4c(-c5ccc(C6CC6)c6ncccc56)n[nH]c4n3)C[C@@H]21 [Example 139, ((1S,6R,7R)-3-(3-(8-cyclopropylquinolin-5-yl)-1H-pyrazolo[3,4-b]pyrazin-6-yl)-7-(2-fluorophenyl)-3-azabicyclo[4.1.0]heptan-7-yl)methanamine] | < 500 | < 1000
7 | NC[C@]1(c2ncccc2F)[C@@H]2CCN(c3cnc4c(-c5cccn6nccc56)n[nH]c4n3)C[C@@H]21 [Example 140, ((1S,6R,7S)-7-(3-fluoropyridin-2-yl)-3-(3-(pyrazolo[1,5-a]pyridin-4-yl)-1H-pyrazolo[3,4-b]pyrazin-6-yl)-3-azabicyclo[4.1.0]heptan-7-yl)methanamine] | < 500 | < 1000
8 | NC[C@]1(c2ccccc2F)[C@@H]2CCN(c3cnc4c(-c5ccc6ncccc6c5)n[nH]c4n3)C[C@@H]21 [Example 141, ((1S,6R,7R)-7-(2-fluorophenyl)-3-(3-(quinolin-6-yl)-1H-pyrazolo[3,4-b]pyrazin-6-yl)-3-azabicyclo[4.1.0]heptan-7-yl)methanamine] | < 500 | < 1000
9 | CC(O)c1ccc(-c2n[nH]c3nc(N4CC[C@@H]5[C@H](C4)[C@@]5(CN)c4ccccc4F)cnc23)c2cccnc12 (stereo partly drawn) [Example 142, 1-(5-(6-((1S,6R,7R)-7-(aminomethyl)-7-(2-fluorophenyl)-3-azabicyclo[4.1.0]heptan-3-yl)-1H-pyrazolo[3,4-b]pyrazin-3-yl)quinolin-8-yl)ethan-1-ol] | < 500 | < 1000
10 | NC[C@]1(c2ccccc2F)[C@@H]2CCN(c3cnc4c(-c5cccc6nccn56)n[nH]c4n3)C[C@@H]21 [Example 143, ((1S,6R,7R)-7-(2-fluorophenyl)-3-(3-(imidazo[1,2-a]pyridin-5-yl)-1H-pyrazolo[3,4-b]pyrazin-6-yl)-3-azabicyclo[4.1.0]heptan-7-yl)methanamine] | < 500 | < 1000
11 | NC[C@]1(c2ncccc2F)[C@@H]2CCN(c3cnc4c(-c5ccc(OC(F)(F)F)c6ncccc56)n[nH]c4n3)C[C@@H]21 [Example 144, ((1S,6R,7S)-7-(3-fluoropyridin-2-yl)-3-(3-(8-(trifluoromethoxy)quinolin-5-yl)-1H-pyrazolo[3,4-b]pyrazin-6-yl)-3-azabicyclo[4.1.0]heptan-7-yl)methanamine] | < 500 | < 1000
12 | Cc1c(-c2n[nH]c3nc(N4CC[C@@H]5[C@H](C4)[C@@]5(CN)c4ccccc4F)cnc23)ccc2nn(C)cc12 [Example 145, ((1S,6R,7R)-3-(3-(2,4-dimethyl-2H-indazol-5-yl)-1H-pyrazolo[3,4-b]pyrazin-6-yl)-7-(2-fluorophenyl)-3-azabicyclo[4.1.0]heptan-7-yl)methanamine] | < 500 | < 1000
13 | COc1ccc(-c2n[nH]c3nc(N4CC[C@@H]5[C@H](C4)[C@@]5(CN)c4ccccc4F)cnc23)c2cccnc12 [Example 146, ((1S,6R,7R)-7-(2-fluorophenyl)-3-(3-(8-methoxyquinolin-5-yl)-1H-pyrazolo[3,4-b]pyrazin-6-yl)-3-azabicyclo[4.1.0]heptan-7-yl)methanamine] | < 500 | < 1000
14 | COc1cc(-c2n[nH]c3nc(N4CC[C@@H]5[C@H](C4)[C@@]5(CN)c4ccccc4F)cnc23)c2ccnn2c1 [Example 147, ((1S,6R,7R)-7-(2-fluorophenyl)-3-(3-(6-methoxypyrazolo[1,5-a]pyridin-4-yl)-1H-pyrazolo[3,4-b]pyrazin-6-yl)-3-azabicyclo[4.1.0]heptan-7-yl)methanamine] | < 500 | < 1000
15 | Cc1cc([C@@]2(CN)[C@@H]3CCN(c4cnc5c(-c6cncc7ncccc67)n[nH]c5n4)C[C@@H]32)no1 [Example 148, ((1S,6R,7S)-3-(3-(1,7-naphthyridin-5-yl)-1H-pyrazolo[3,4-b]pyrazin-6-yl)-7-(5-methylisoxazol-3-yl)-3-azabicyclo[4.1.0]heptan-7-yl)methanamine] | < 500 | < 1000
16 | COc1ccc2cc(-c3n[nH]c4nc(N5CC[C@@H]6[C@H](C5)[C@@]6(CN)c5cc(C)on5)cnc34)ccc2n1 [Example 149, ((1S,6R,7S)-3-(3-(2-methoxyquinolin-6-yl)-1H-pyrazolo[3,4-b]pyrazin-6-yl)-7-(5-methylisoxazol-3-yl)-3-azabicyclo[4.1.0]heptan-7-yl)methanamine] | < 500 | < 1000
17 | Cc1cc([C@@]2(CN)[C@@H]3CCN(c4cnc5c(-c6ccc7nc(C(F)(F)F)ccc7c6)n[nH]c5n4)C[C@@H]32)no1 [Example 150, ((1S,6R,7S)-7-(5-methylisoxazol-3-yl)-3-(3-(2-(trifluoromethyl)quinolin-6-yl)-1H-pyrazolo[3,4-b]pyrazin-6-yl)-3-azabicyclo[4.1.0]heptan-7-yl)methanamine] | < 500 | < 1000
18 | COc1ccc2cc(-c3n[nH]c4nc(N5CC[C@@H]6[C@H](C5)[C@@]6(CN)c5cc(C)on5)cnc34)cnc2c1 [Example 151, ((1S,6R,7S)-3-(3-(7-methoxyquinolin-3-yl)-1H-pyrazolo[3,4-b]pyrazin-6-yl)-7-(5-methylisoxazol-3-yl)-3-azabicyclo[4.1.0]heptan-7-yl)methanamine] | < 500 | < 1000
19 | Cc1cc([C@@]2(CN)[C@@H]3CCN(c4cnc5c(-c6cnc7cc(C(F)(F)F)ccc7c6)n[nH]c5n4)C[C@@H]32)no1 [Example 152, ((1S,6R,7S)-7-(5-methylisoxazol-3-yl)-3-(3-(7-(trifluoromethyl)quinolin-3-yl)-1H-pyrazolo[3,4-b]pyrazin-6-yl)-3-azabicyclo[4.1.0]heptan-7-yl)methanamine] | < 500 | < 1000
20 | NC[C@]1(c2ccccc2F)[C@@H]2CCN(c3cnc4c(-c5nccc6ncccc56)n[nH]c4n3)C[C@@H]21 [Example 153, ((1S,6R,7R)-3-(3-(1,6-naphthyridin-5-yl)-1H-pyrazolo[3,4-b]pyrazin-6-yl)-7-(2-fluorophenyl)-3-azabicyclo[4.1.0]heptan-7-yl)methanamine] | < 500 | < 1000
21 | NC[C@]1(c2ccccc2F)[C@@H]2CCN(c3cnc4c(-c5ccnc6c5CCO6)n[nH]c4n3)C[C@@H]21 [Example 154, ((1S,6R,7R)-3-(3-(2,3-dihydrofuro[2,3-b]pyridin-4-yl)-1H-pyrazolo[3,4-b]pyrazin-6-yl)-7-(2-fluorophenyl)-3-azabicyclo[4.1.0]heptan-7-yl)methanamine] | < 500 | < 1000
22 | NC[C@]1(c2ccccc2F)[C@@H]2CCN(c3cnc4c(-c5ccnc6cnccc56)n[nH]c4n3)C[C@@H]21 [Example 155, ((1S,6R,7R)-3-(3-(1,7-naphthyridin-4-yl)-1H-pyrazolo[3,4-b]pyrazin-6-yl)-7-(2-fluorophenyl)-3-azabicyclo[4.1.0]heptan-7-yl)methanamine] | < 500 | < 1000
23 | Cc1cc([C@@]2(CN)[C@@H]3CCN(c4cnc5c(-c6ccc(F)c7ncccc67)c[nH]c5n4)C[C@@H]32)no1 [Example 156, ((1S,6R,7S)-3-(7-(8-fluoroquinolin-5-yl)-5H-pyrrolo[2,3-b]pyrazin-3-yl)-7-(5-methylisoxazol-3-yl)-3-azabicyclo[4.1.0]heptan-7-yl)methanamine] | < 500 | < 1000
